The numbers were not newly measured in US20220000872A1, “METHOD OF ENHANCING IMMUNE-BASED THERAPY” (OncoTracker, Inc., priority 2018, published 2022), which cites them from elsewhere.

The test system of series [1] is multiple myeloma. To be noted: Phase 1 clinical trial NCT00639002; cited from earlier work.
Series [2] relates to multiple myeloma. To be noted: combined with a thalidomide derivative such as lenalidomide and optionally a steroid or glucocorticoid; cited from earlier work.

As to `N#CC[C@H](C1CCCC1)n1cc(-c2ncnc3[nH]ccc23)cn1` [RUX, ruxolitinib], the “efficacy of monotherapy for multiple myeloma” value in the series on multiple myeloma [1] was “ineffective”. Further, the “efficacy in treating hematological malignancies (in particular, multiple myeloma)” value in the series with multiple myeloma [2] was “effective”.
